According to ChEMBL document CHEMBL3352731, “Evaluation of gambierol and its analogs for their inhibition of human Kv1.2 and cytotoxicity” (Bioorg Med Chem Lett, 2015):

How the values were obtained:
CHO [1] = experiment: Cytotoxicity against wild-type CHO cells assessed as growth inhibition after 72 hrs by WST-8 assay; format: cell-based; conditions: Cricetulus griseus
CHO [2] = experiment: Cytotoxicity against CHO cells transfected with human Kv 1.2 assessed as growth inhibition after 72 hrs by WST-8 assay; format: cell-based; conditions: Cricetulus griseus
[3] = biological target: Potassium voltage-gated channel subfamily A member 2 (Homo sapiens) (UniProt P16389); experiment: Inhibition of human Kv 1.2 stably expressed in CHO cells by whole cell patch clamp method; format: cell-based
Potassium voltage-gated channel subfamily A member 2 (Homo sapiens), sequence (P16389 whole entry): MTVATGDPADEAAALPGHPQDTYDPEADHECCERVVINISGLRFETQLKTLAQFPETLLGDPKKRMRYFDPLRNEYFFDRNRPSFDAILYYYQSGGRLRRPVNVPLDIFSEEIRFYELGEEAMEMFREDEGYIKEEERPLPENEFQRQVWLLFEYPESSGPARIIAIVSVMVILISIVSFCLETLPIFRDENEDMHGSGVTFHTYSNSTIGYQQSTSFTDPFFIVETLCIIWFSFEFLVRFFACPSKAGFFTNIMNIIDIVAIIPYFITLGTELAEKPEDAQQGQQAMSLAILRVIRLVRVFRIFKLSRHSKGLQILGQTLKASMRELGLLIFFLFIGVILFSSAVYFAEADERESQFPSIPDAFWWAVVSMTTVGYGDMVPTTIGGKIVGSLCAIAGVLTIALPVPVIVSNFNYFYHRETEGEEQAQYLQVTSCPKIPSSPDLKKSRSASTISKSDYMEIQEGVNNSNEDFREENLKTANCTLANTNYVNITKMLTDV

CHO [4] = experiment: Induction of leak current in wild-type CHO cells by electrophysiology method; format: cell-based, Cricetulus griseus; conditions: chinese hamster

SMILES | IC50 (CHO [1]) | IC50 (CHO [2]) | inhibition [3] | Activity (CHO [4])
C=CC/C=C\C=C/[C@H]1O[C@H]2C[C@H]3O[C@H]4CC[C@H]5O[C@H]6C[C@@]7(C)OCCC[C@@H]7O[C@@H]6C[C@@H]5O[C@]4(C)C[C@]3(C)O[C@@H]2C=C[C@]1(C)O | 6 µM | 6.5 µM |  | 
C=CC/C=C\C=C/[C@H]1O[C@H]2C[C@H]3O[C@H]4CC[C@H]5O[C@H]6C[C@@]7(C)O[C@@]8(C)[C@@H](O)C[C@H](CCCO)O[C@@H]8C[C@@H]7O[C@@H]6C[C@@H]5O[C@]4(C)C[C@]3(C)O[C@@H]2C=C[C@]1(C)O | 78 µM | 95 µM | Dose-dependent effect | Dose-dependent effect
C=CC/C=C\C=C/[C@H]1O[C@H]2C[C@H]3O[C@H]4CCCCO[C@]4(C)C[C@]3(C)O[C@@H]2C=C[C@]1(C)O | > 100 µM | > 100 µM |  | 
